In assay [1] the target is T1, α4β1 (Homo sapiens, UniProt P05556+P13612).
T1 construct: 100 µl of Jurkat cells (2.5 x 10^6 cells/ml) in DMEM plus BSA; host or cells: Jurkat T-cell line
Put plainly: Jurkat-CS-1 assay. In kind it is cell-based. The note with it: Jurkat cell adhesion to immobilized CS-1 derived peptide.

The target of assay [2] is T2, α4β1 integrin (Homo sapiens, UniProt P05556+P13612).
T2 construct: a T-cell line, Jurkat, known to express the α4β1 integrin; host or cells: Jurkat T-cell line
T2 sequence (P13612 34-1032): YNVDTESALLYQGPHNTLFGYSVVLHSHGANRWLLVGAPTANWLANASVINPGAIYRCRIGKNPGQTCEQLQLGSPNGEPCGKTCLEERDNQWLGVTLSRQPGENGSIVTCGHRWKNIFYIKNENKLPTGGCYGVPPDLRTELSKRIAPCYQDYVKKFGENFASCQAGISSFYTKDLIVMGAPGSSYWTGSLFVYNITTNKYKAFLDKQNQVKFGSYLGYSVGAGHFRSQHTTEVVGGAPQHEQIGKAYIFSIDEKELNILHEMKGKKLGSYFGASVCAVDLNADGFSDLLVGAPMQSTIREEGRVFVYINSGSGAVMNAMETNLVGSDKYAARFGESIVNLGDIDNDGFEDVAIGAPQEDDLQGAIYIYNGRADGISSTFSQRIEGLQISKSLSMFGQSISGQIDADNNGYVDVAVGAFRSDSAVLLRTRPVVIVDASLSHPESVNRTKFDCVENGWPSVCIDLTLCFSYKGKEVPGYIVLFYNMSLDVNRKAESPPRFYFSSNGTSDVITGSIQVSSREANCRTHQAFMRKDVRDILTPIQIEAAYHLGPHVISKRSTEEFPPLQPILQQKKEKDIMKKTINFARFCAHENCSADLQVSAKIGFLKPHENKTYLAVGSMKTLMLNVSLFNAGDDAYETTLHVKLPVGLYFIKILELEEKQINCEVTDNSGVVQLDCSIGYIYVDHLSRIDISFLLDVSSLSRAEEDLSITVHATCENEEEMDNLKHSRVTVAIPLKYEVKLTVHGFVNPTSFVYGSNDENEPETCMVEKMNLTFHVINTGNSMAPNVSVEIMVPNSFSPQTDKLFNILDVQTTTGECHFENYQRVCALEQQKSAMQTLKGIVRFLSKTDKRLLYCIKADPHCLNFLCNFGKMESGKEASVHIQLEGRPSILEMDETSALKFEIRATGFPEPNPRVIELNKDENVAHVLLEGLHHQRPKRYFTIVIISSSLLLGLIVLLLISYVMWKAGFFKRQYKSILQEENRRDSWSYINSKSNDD
T2 sequence (P05556 21-798): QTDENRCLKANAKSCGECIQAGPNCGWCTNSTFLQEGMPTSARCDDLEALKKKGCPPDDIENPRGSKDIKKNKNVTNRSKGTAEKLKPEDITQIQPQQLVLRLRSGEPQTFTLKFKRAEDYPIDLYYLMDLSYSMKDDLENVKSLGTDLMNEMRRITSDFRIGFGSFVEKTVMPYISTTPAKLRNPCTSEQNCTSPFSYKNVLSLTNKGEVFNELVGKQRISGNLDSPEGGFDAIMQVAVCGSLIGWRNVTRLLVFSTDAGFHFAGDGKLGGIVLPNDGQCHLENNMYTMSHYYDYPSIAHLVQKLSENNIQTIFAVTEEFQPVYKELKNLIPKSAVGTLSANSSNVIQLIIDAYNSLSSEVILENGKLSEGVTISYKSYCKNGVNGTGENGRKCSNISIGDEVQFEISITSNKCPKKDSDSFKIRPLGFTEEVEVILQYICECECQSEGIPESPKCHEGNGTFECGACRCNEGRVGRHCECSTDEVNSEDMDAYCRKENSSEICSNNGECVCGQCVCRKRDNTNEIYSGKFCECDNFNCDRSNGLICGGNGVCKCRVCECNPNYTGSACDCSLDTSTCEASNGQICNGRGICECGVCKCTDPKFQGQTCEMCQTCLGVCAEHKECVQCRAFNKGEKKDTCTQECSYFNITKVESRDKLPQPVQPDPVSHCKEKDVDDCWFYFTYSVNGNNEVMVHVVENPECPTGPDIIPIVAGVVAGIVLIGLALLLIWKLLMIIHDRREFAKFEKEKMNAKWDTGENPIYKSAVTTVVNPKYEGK
Put plainly: Jurkat-Endothelial Cell Adhesion Assay (Jurkat EC). Type of assay: cell-based. To be noted: Jurkat cell adhesion to IL-1 stimulated endothelial cell monolayers. In outline: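 BCECF-loaded Jurkat T cells (5 x 10^5) mixed with compound, generally 100, 20, 5 and 1.25 µM, in DMEM-HSA, added to HUVEC monolayers prestimulated 4 h with 0.1 ng/ml IL-1. After washing, adherent-cell fluorescence read; % adhesion relative to no-compound control set at 100%.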

The structures appear in SMILES notation. Where a name gives a salt, the structure may show the parent alone. Bounds are passed on as bounds.

T1 sequence (P13612 34-1032): as the sequence (P13612 34-1032) above
T1 sequence (P05556 21-798): as the sequence (P05556 21-798) above

For orientation: IC50 means the concentration at which inhibition is half-maximal. As to `CC(=O)[C@H]1C[C@@H](C(=O)N[C@@H](Cc2ccc(NC(=O)c3c(Cl)cccc3Cl)cc2)C(=O)O)C1(C)C` [Example 101, (1R-cis)-N-[(3-Acetyl-2,2-dimethyleyclobutyl)carbonyl]-4-[(2,6-dichlorobenzoyl)-amino]-L-phenylalanine], the half-maximal inhibitory concentration (IC50) in assay [1] lay within 80 to 500 nM; in assay [2], 800 to 5000 nM.
As to `CC1(C)[C@H](C(=O)O)C[C@H]1C(=O)N[C@@H](Cc1ccc(NC(=O)c2c(Cl)cccc2Cl)cc1)C(=O)O` [Example 102, (1R-trans)-N-[(3-Carboxy-2,2-dimethylcyclobutyl)carbonyl]-4-[(2,6-dichlorobenzoyl)amino]-L-phenylalanine], the IC50 in assay [1] is 80 to 500 nM; in assay [2], ≤ 800 nM.
The corresponding values for `CC1(C)[C@@H](C(=O)O)C[C@H]1C(=O)N[C@@H](Cc1ccc(NC(=O)c2c(Cl)cccc2Cl)cc1)C(=O)O` [Example 103, (1R-cis)-N-[(3-Carboxy-2,2-dimethylcyclobutyl)carbonyl]-4-[(2,6-dichlorobenzoyl)amino]-L-phenylalanine] are 80 to 500 nM and ≤ 800 nM.
For `CC(=O)[C@H]1C[C@H](C(=O)N[C@@H](Cc2ccc(NC(=O)c3cccnc3Cl)cc2)C(=O)O)C1(C)C` [Example 104, (1S-trans)-N-[(3-Acetyl-2,2-dimethylcyclobutyl)carbonyl]-4-[[(2-chloro-3-pyridinyl)carbonyl]amino]-L-phenylalanine], the 50% inhibitory concentration (IC50) was in the range of 500 to 1000 nM in assay [1] and 800 to 5000 nM in assay [2].
The corresponding values for `CC(=O)[C@@H]1C[C@H](C(=O)N[C@@H](Cc2ccc(NC(=O)c3cccnc3Cl)cc2)C(=O)O)C1(C)C` [Example 105, (1S-cis)-N-[(3-Acetyl-2,2-dimethylcyclobutyl)carbonyl]-4-[[(2-chloro-3-pyridinyl)carbonyl]amino]-L-phenylalanine] are 80 to 500 nM and 800 to 5000 nM.
Regarding `CC(=O)[C@H]1C[C@H](C(=O)N[C@@H](Cc2ccc(NC(=O)c3ccc(Cl)nc3Cl)cc2)C(=O)O)C1(C)C` [Example 106, (1S-trans)-N-[(3-Acetyl-2,2-dimethylcyclobutyl)carbonyl]-4-[[(2,6-dichloro-3-pyridinyl)carbonyl]amino]-L-phenylalanine], the results for the half-maximal inhibitory concentration (IC50) in assay [1] and in assay [2] were 80 to 500 nM and 800 to 5000 nM, respectively.
Taken in the same sequence, the figures for `CC(=O)[C@@H]1C[C@H](C(=O)N[C@@H](Cc2ccc(NC(=O)c3ccc(Cl)nc3Cl)cc2)C(=O)O)C1(C)C` [Example 107, (1S-cis)-N-[(3-Acetyl-2,2-dimethylcyclobutyl)carbonyl]-4-[[(2,6-dichloro-3-pyridinyl)carbonyl]amino]-L-phenylalanine] were 80 to 500 nM and 800 to 5000 nM.
`O=C(Nc1ccc(C[C@H](NC(=O)N2CCCC(C(=O)O)C2)C(=O)O)cc1)c1c(Cl)cccc1Cl` (stereo partly drawn) [Example 114, 1-[[[(1S)-1-carboxy-2-[4-[(2,6-dichlorobenzoyl)amino]phenyl]ethyl]amino]carbonyl]-3-piperidinecarboxylic acid]: the figures for the IC50 in assay [1] and in assay [2] were 80 to 500 nM and ≤ 800 nM, respectively.
As to `O=C(Nc1ccc(C[C@H](NC(=O)N2CCCC(C(=O)O)C2)C(=O)O)cc1)c1c(Cl)cccc1Cl` (stereo partly drawn) [Example 115, 1-[[((1S)-1-carboxy-2-[4-[(2,6-dichlorobenzoyl)amino]phenyl]ethyl)amino]carbonyl]-3-piperidinecarboxylic acid], the concentration for half-maximal inhibition (IC50) in assay [1] was in the range of 80 to 500 nM; in assay [2], 800 to 5000 nM.
The corresponding values for `O=C(Nc1ccc(C[C@H](NC(=O)N2CCCC(C(=O)O)C2)C(=O)O)cc1)c1c(Cl)cccc1Cl` (stereo partly drawn) [Example 116, 1-[[[(1S)-1-carboxy-2-[4-[(2,6-dichlorobenzoyl)amino]phenyl]ethyl]amino]carbonyl]-3-piperidinecarboxylic acid] are 80 to 500 nM and ≤ 800 nM.
With `O=C(Nc1ccc(C[C@H](NC(=S)N2CCCC(C(=O)O)C2)C(=O)O)cc1)c1c(Cl)cccc1Cl` (stereo partly drawn) [Example 117, 1-[[[(1S)-1-carboxy-2-[4-[(2,6-dichlorobenzoyl)amino]phenyl]ethyl]amino]thiocarbonyl]-3-piperidinecarboxylic acid], the IC50 in assay [1] is 80 to 500 nM; in assay [2], ≤ 800 nM.
Taken in the same sequence, the figures for `CC1=C(C(=O)N[C@@H](Cc2ccc(NC(=O)c3c(Cl)cccc3Cl)cc2)C(=O)O)C(C)(C)CC/C1=C\C(=O)O` [Example 118, N-[[(3E)-3-Carboxymethylene-2,6,6-trimethyl-1-cyclohexen-1-yl]carbonyl]-4-[(2,6-dichlorobenzoyl)amino]-L-phenylalanine] were ≤ 80 nM and ≤ 800 nM.
Taken in the same sequence, the figures for `CC1=C(C(=O)N[C@@H](Cc2ccc(OCc3c(Cl)cccc3Cl)cc2)C(=O)O)C(C)(C)CC/C1=C\C(=O)O` [Example 119, N-[[(3E)-3-Carboxymethylene-2,6,6-trimethyl-1-cyclohexen-1-yl]carbonyl]-4-O-(2,6-dichlorophenylmethyl)-L-tyrosine] were ≤ 80 nM and ≤ 800 nM.
Regarding `CC1=C(C(=O)N[C@@H](Cc2ccc(NC(=O)c3c(Cl)cccc3Cl)cc2)C(=O)O)C(C)(C)CC/C1=C\C#N` [Example 120, N-[[(3E)-3-Cyanomethylene-2,6,6-trimethyl-1-cyclohexen-1-yl]carbonyl]-4-[(2,6-dichlorobenzoyl)amino]-L-phenylalanine], the IC50 in assay [1] is ≤ 80 nM; in assay [2], ≤ 800 nM.
Regarding `O=C(/C=C/c1ccc(C(=O)O)cc1)N[C@@H](Cc1ccc(NC(=O)c2c(Cl)cccc2Cl)cc1)C(=O)O` [Example 123], the IC50 in assay [1] lay within 500 to 1000 nM; in assay [2], 5000 to 10000 nM.
Taken in the same sequence, the figures for `O=C(O)/C=C/c1cccc(C(=O)N[C@@H](Cc2ccc(NC(=O)c3c(Cl)cccc3Cl)cc2)C(=O)O)c1` [Example 124, N-[[3-[(E)-3-Hydroxy-3-oxo-1-propenyl]phenyl]carbonyl]-4-[(2,6-dichlorobenzoyl)amino]-L-phenylalanine] were 500 to 1000 nM and 800 to 5000 nM.
Taken in the same sequence, the figures for `O=C(O)/C=C/c1ccc(C(=O)N[C@@H](Cc2ccc(NC(=O)c3c(Cl)cccc3Cl)cc2)C(=O)O)cc1` [Example 125, N-[[4-[(E)-3-Hydroxy-3-oxo-1-propenyl]phenyl]carbonyl]-4-[(2,6-dichlorobenzoyl)amino] -L-phenylalanine] were ≤ 80 nM and 800 to 5000 nM.
Take `O=C(O)C=C1CCC(C(=O)N[C@@H](Cc2ccc(NC(=O)c3c(Cl)cccc3Cl)cc2)C(=O)O)CC1` (stereo partly drawn) [Example 126, N-[[4-(Carboxymethylene)cyclohexyl]carbonyl]-4-[(2,6-dichlorobenzoyl)amino]-L-phenylalanine]: the IC50 in assay [1] is ≤ 80 nM; in assay [2], 800 to 5000 nM.
As for `O=C(C=C1CCC(C(=O)O)CC1)N[C@@H](Cc1ccc(NC(=O)c2c(Cl)cccc2Cl)cc1)C(=O)O` (stereo partly drawn) [Example 127, N-[4-Carboxy-1-cyclohexylideneacetyl]-4-[(2,6-dichlorobenzoyl)amino]-L-phenylalanine], the 50% inhibitory concentration (IC50) is 80 to 500 nM in assay [1] and 800 to 5000 nM in assay [2].
Taken in the same sequence, the figures for `CC1(C)CC(C(=O)O)CC/C1=C\C(=O)N[C@@H](Cc1ccc(NC(=O)c2c(Cl)cccc2Cl)cc1)C(=O)O` (stereo partly drawn) [Example 128, N-[(1E)-4-Carboxy-2,2-dimethyl-1-cyclohexylideneacetyl]-4-[(2,6-dichlorobenzoyl)amino]-L-phenylalanine] were 80 to 500 nM and 800 to 5000 nM.
Taken in the same sequence, the figures for `COC(=O)[C@H](Cc1ccc(NC(=O)c2c(Cl)cccc2Cl)cc1)NC(=O)c1cccc2c1CCC/C2=C/C(=O)O` [Example 130, N-[[(5Z)-5-Carboxymethylene-7,8-dihydro-1(6H)-naphthyl]carbonyl]-4-[(2,6-dichlorobenzoyl)amino]-L-phenylalanine methyl ester] were 500 to 1000 nM and 800 to 5000 nM.
The corresponding values for `O=C(O)/C=C1/CCCc2c(C(=O)N[C@@H](Cc3ccc(NC(=O)c4c(Cl)cccc4Cl)cc3)C(=O)O)cccc21` [Example 131, N-[[(5Z)-5-Carboxymethylene-7,8-dihydro-1(6H)-naphthyl]carbonyl]-4-[(2,6-dichlorobenzoyl)amino]-L-phenylalanine] are ≤ 80 nM and ≤ 800 nM.
`O=C(O)/C=C1\CCCc2c(C(=O)N[C@@H](Cc3ccc(NC(=O)c4c(Cl)cccc4Cl)cc3)C(=O)O)cccc21` [Example 134, N-[[(5E)-5-Carboxymethylene-7,8-dihydro-1(6H)-naphthyl]carbonyl]-4-[(2,6-dichlorobenzoyl)amino]-L-phenylalanine]: the figures for the IC50 in assay [1] and in assay [2] were 80 to 500 nM and ≤ 800 nM, respectively.
Taken in the same sequence, the figures for `O=C(O)/C=C1\CCCc2cc(C(=O)N[C@@H](Cc3ccc(NC(=O)c4c(Cl)cccc4Cl)cc3)C(=O)O)ccc21` [Example 135, N-[[(5E)-5-Carboxymethylene-7,8-dihydro-2(6H)-naphthyl]carbonyl]-4-[(2,6-dichlorobenzoyl)amino]-L-phenylalanine sodium salt] were 500 to 1000 nM and 5000 to 10000 nM.

The values above are taken from EP1144365B1 (TANABE SEIYAKU CO., LTD., priority 1998, dated 2000).
